Starred links: 1 amine or outer side, 2 acyl side, 3 side chain; linkers in the order of their positions; H or OH if unused. Positions of bridges follow the written chain, without caps; N, C: chain ends. Non-standard residues stand in square brackets, D forms with d. Residues, ends and D or L forms follow the SMILES beside them. *: point of attachment. hPhe(3-Cl-4-CF3) = N[C@@H](CCc1ccc(C(F)(F)F)c(Cl)c1)C(=O)O; hPhe(3-F,4-CF3) = N[C@@H](CCc1ccc(C(F)(F)F)c(F)c1)C(=O)O; NMePhe(4-CF3) = CN[C@@H](Cc1ccc(C(F)(F)F)cc1)C(=O)O; NMedβ3hAla = C[C@H](CC(=O)[*:2])N(C)[*:1]; NMeGly(cPent) = CN[C@H](C(=O)O)C1CCCC1; NMeCha = CN[C@@H](CC1CCCCC1)C(=O)O; cisHyp = O=C(O)[C@@H]1C[C@H](O)CN1; Hyp = O=C(O)[C@@H]1C[C@@H](O)CN1; NMeChg = CN[C@H](C(=O)O)C1CCCCC1; NMeI = CC[C@H](C)[C@H](NC)C(=O)O; NMeD = CN[C@@H](CC(=O)O)C(=O)O; NMeL = CN[C@@H](CC(C)C)C(=O)O; NMeNle = CCCC[C@H](NC)C(=O)O; NMeAc5c = CNC1(C(=O)O)CCCC1; NMeV = CN[C@H](C(=O)O)C(C)C; d(β3hA) = C[C@@H](N)CC(=O)O; NMeS = CN[C@@H](CO)C(=O)O; NMeA = CN[C@@H](C)C(=O)O; Piperidide = C1CCN(*)CC1; Ac5c = NC1(C(=O)O)CCCC1; Aze = O=C(O)[C@@H]1CCN1; CH2CMe2OH = CC(C)(O)C*; Ethyl(2-OH) = OCC*; Sar = CNCC(=O)O
Tested on: Human pancreatic cancer cell line AsPC-1
Experiment: Measurement of AsPC-1 cell growth inhibition (AsPC-1 CGI)
Assay type: cell-based
Details: 96 h
Outline: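 AsPC-1 cells in 15% FBS RPMI-1640 were exposed to test compound for 96 hours at 37° C, with CellTiter-Glo as endpoint.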

Compound | IC50 [nM]
CC[C@H](C)[C@@H]1NC(=O)[C@H](CC(C)C)N(C)C(=O)C[C@@H](C(=O)N2CCCCC2)N(C)C(=O)[C@H](C2CCCCC2)N(C)C(=O)C2(CCCC2)NC(=O)[C@H](COCC(C)(C)O)N(C)C(=O)[C@H](CCc2ccc(C(F)(F)F)c(Cl)c2)NC(=O)CN(C)C(=O)[C@H](CC2CCCCC2)N(C)C(=O)CN(C)C(=O)CN(C)C1=O [Compound 789] ([NMeL]I[Sar][Sar][NMeCha][Sar][hPhe(3-Cl-4-CF3)][NMeS](CH2CMe2OH)[Ac5c][NMeChg][NMeD]-Piperidide; lactam N-11) | 100 to 500
CCO[C@@H]1C[C@H]2C(=O)NC3(CCCC3)C(=O)N(C)[C@@H](CC(C)C)C(=O)N(C)[C@H](C)CC(=O)N(C)[C@@H](CC(C)C)C(=O)N[C@@H]([C@@H](C)CC)C(=O)N(C)CC(=O)N(C)CC(=O)N(C)[C@@H](CC3CCCCC3)C(=O)N(C)CC(=O)N[C@@H](CCc3ccc(C(F)(F)F)c(Cl)c3)C(=O)N2C1 [Compound 1851] (cyclo([Ac5c][NMeL][NMedβ3hAla][NMeL]I[Sar][Sar][NMeCha][Sar][hPhe(3-Cl-4-CF3)][Hyp](Et))) | 20 to 50
CC[C@H](C)[C@@H]1NC(=O)[C@H](C)N(C)C(=O)C[C@@H](C)NC(=O)[C@H](C2CCCC2)N(C)C(=O)C2(CCCC2)NC(=O)[C@@H]2CCCN2C(=O)[C@H](CCc2ccc(C(F)(F)F)c(Cl)c2)NC(=O)CN(C)C(=O)[C@H](Cc2ccc(C(F)(F)F)cc2)N(C)C(=O)[C@@H]2CCCN2C(=O)CN(C)C1=O [Compound 749] (cyclo([Ac5c][NMeGly(cPent)][d(β3hA)][NMeA]I[Sar]P[NMePhe(4-CF3)][Sar][hPhe(3-Cl-4-CF3)]P)) | 100 to 500
CC[C@H](C)[C@@H]1NC(=O)[C@H]([C@@H](C)CC)N(C)C(=O)C[C@@H](C(=O)N2CCCCC2)N(C)C(=O)[C@H](C(C)C)N(C)C(=O)C2(CCCC2)NC(=O)[C@@H]2CCCN2C(=O)[C@H](CCc2ccc(C(F)(F)F)c(Cl)c2)NC(=O)CN(C)C(=O)[C@H](CC2CCCCC2)N(C)C(=O)[C@@H]2CCN2C(=O)[C@H](C)N(C)C1=O [Compound 1863] ([NMeI]I[NMeA][Aze][NMeCha][Sar][hPhe(3-Cl-4-CF3)]P[Ac5c][NMeV][NMeD]-Piperidide; lactam N-11) | 100 to 500
CC[C@H](C)[C@@H]1NC(=O)[C@H](CC(C)C)N(C)C(=O)C[C@@H](C(=O)N2CCCCC2)N(C)C(=O)[C@H](C2CCCCC2)N(C)C(=O)C2(CCCC2)NC(=O)[C@@H]2C[C@H](OCCO)CN2C(=O)[C@H](CCc2ccc(C(F)(F)F)c(Cl)c2)NC(=O)CN(C)C(=O)[C@H](CC2CCCCC2)N(C)C(=O)CN(C)C(=O)CN(C)C1=O [Compound 2117, (3S,9S,18S,21S,25S,28S,34S,36S)-3-[2-[3-chloro-4-(trifluoromethyl)phenyl]ethyl]-28-cyclohexyl-9-(cyclohexylmethyl)-36-(2-hydroxyethoxy)-21-isobutyl-7,10,13,16,22,26,29-heptamethyl-18-[(1S)-1-methylpropyl]-25-(piperidine-1-carbonyl)spiro[1,4,7,10,13,16,19,22,26,29,32-undecazabicyclo[32.3.0]heptatriacontane-31,1′-cyclopentane]-2,5,8,11,14,17,20,23,27,30,33-undecone] ([NMeL]I[Sar][Sar][NMeCha][Sar][hPhe(3-Cl-4-CF3)][cisHyp](Ethyl(2-OH))[Ac5c][NMeChg][NMeD]-Piperidide; lactam N-11) | 100 to 500
CC[C@H](C)[C@@H]1NC(=O)[C@H](C)N(C)C(=O)C[C@@H](C)NC(=O)[C@H](C2CCCC2)N(C)C(=O)C2(CCCC2)NC(=O)[C@@H]2CCCN2C(=O)[C@H](CCc2ccc(C(F)(F)F)c(Cl)c2)NC(=O)CN(C)C(=O)[C@H](Cc2ccc(C(F)(F)F)cc2)N(C)C(=O)[C@@H]2CCN2C(=O)[C@H](C)N(C)C1=O [Compound 1512] (cyclo([Ac5c][NMeGly(cPent)][d(β3hA)][NMeA]I[NMeA][Aze][NMePhe(4-CF3)][Sar][hPhe(3-Cl-4-CF3)]P)) | 50 to 100
CCCC[C@H]1C(=O)N(C)[C@H](C(=O)N2CCCCC2)CC(=O)N(C)[C@@H](CC(C)C)C(=O)N[C@@H]([C@@H](C)CC)C(=O)N(C)[C@@H](C)C(=O)N2CC[C@H]2C(=O)N(C)[C@@H](CC2CCCCC2)C(=O)N(C)CC(=O)N[C@@H](CCc2ccc(C(F)(F)F)c(Cl)c2)C(=O)N2CCC[C@H]2C(=O)NC2(CCCC2)C(=O)N1C [Compound 1859] ([NMeL]I[NMeA][Aze][NMeCha][Sar][hPhe(3-Cl-4-CF3)]P[Ac5c][NMeNle][NMeD]-Piperidide; lactam N-11) | 100 to 500
CC[C@H](C)[C@@H]1NC(=O)[C@H](C2CCCCC2)N(C)C(=O)C[C@@H](C(=O)N2CCCCC2)N(C)C(=O)[C@H](C(C)C)N(C)C(=O)C2(CCCC2)NC(=O)[C@@H]2CCCN2C(=O)[C@H](CCc2ccc(C(F)(F)F)c(Cl)c2)NC(=O)CN(C)C(=O)[C@H](CC2CCCCC2)N(C)C(=O)[C@@H]2CCN2C(=O)[C@H](C)N(C)C1=O [Compound 58] ([NMeChg]I[NMeA][Aze][NMeCha][Sar][hPhe(3-Cl-4-CF3)]P[Ac5c][NMeV][NMeD]-Piperidide; lactam N-11) | 100 to 500
CCCC[C@H]1C(=O)N2CC[C@H]2C(=O)N(C)[C@@H](CC2CCCCC2)C(=O)N(C)CC(=O)N[C@@H](CCc2ccc(C(F)(F)F)c(Cl)c2)C(=O)N2CCC[C@H]2C(=O)NC2(CCCC2)C(=O)N(C)[C@@H](C(C)C)C(=O)N(C)[C@H](C(=O)N2CCCCC2)CC(=O)N(C)[C@@H](CC(C)C)C(=O)N[C@@H]([C@@H](C)CC)C(=O)N1C [Compound 1596] ([NMeL]I[NMeNle][Aze][NMeCha][Sar][hPhe(3-Cl-4-CF3)]P[Ac5c][NMeV][NMeD]-Piperidide; lactam N-11) | 100 to 500
CC[C@H](C)[C@@H]1NC(=O)[C@H](CC(C)C)N(C)C(=O)C[C@@H](C)NC(=O)[C@H](C(C)C)N(C)C(=O)C2(CCCC2)NC(=O)[C@@H]2CCCN2C(=O)[C@H](CCc2ccc(C(F)(F)F)c(Cl)c2)NC(=O)CN(C)C(=O)[C@H](CC2CCCCC2)N(C)C(=O)[C@@H]2CCN2C(=O)[C@H](C)N(C)C1=O [Compound 488] (cyclo([Ac5c][NMeV][d(β3hA)][NMeL]I[NMeA][Aze][NMeCha][Sar][hPhe(3-Cl-4-CF3)]P)) | 100 to 500
CC[C@H](C)[C@@H]1NC(=O)[C@H](CC(C)C)N(C)C(=O)C[C@@H](C)N(C)C(=O)[C@H](CC(C)C)NC(=O)C2(CCCC2)N(C)C(=O)[C@H](CC(C)C)NC(=O)[C@H](CCc2ccc(C(F)(F)F)c(F)c2)NC(=O)CN(C)C(=O)[C@H](CC2CCCCC2)N(C)C(=O)CN(C)C(=O)CN(C)C1=O [Compound 2] (cyclo(I[Sar][Sar][NMeCha][Sar][hPhe(3-F,4-CF3)]L[NMeAc5c]L[NMedβ3hAla][NMeL])) | 100 to 500
CC[C@H](C)[C@@H]1NC(=O)[C@H](CC(C)C)N(C)C(=O)C[C@@H](C)N(C)C(=O)[C@H](C2CCCC2)N(C)C(=O)C2(CCCC2)NC(=O)[C@@H]2CCCN2C(=O)[C@H](CCc2ccc(C(F)(F)F)c(Cl)c2)NC(=O)CN(C)C(=O)[C@H](CC2CCCCC2)N(C)C(=O)[C@@H]2CCN2C(=O)[C@H](C)N(C)C1=O [Compound 1717] (cyclo([Ac5c][NMeGly(cPent)][NMedβ3hAla][NMeL]I[NMeA][Aze][NMeCha][Sar][hPhe(3-Cl-4-CF3)]P)) | 50 to 100

From patent publication US12371454B2, “Cyclic peptide compound having Kras inhibitory action” (priority 2019, dated 2025)
